Test results: PubChem BioAssay (NCI)
Several values for one entry are separate records, joined by “and”; a condition that tells them apart may be missing. Equal values may be shown once.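 Briefly, cells in 96-well plates were exposed to five compound concentrations for 48 h, and endpoints were estimated by linear interpolation. GI50 marks 50% less growth. TGI marks complete inhibition of growth.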

How the values were obtained:
Assay in all cases: DTP human tumour cell line panel, 48 h
RXF 393 renal = test system: RXF 393 renal
786-0 renal = test system: 786-0 renal
MOLT-4 leukemia = test system: MOLT-4 leukemia
M14 melanoma = test system: M14 melanoma
OVCAR-3 ovarian = test system: OVCAR-3 ovarian
BT-549 breast = test system: BT-549 breast
HOP-92 NSCLC = test system: HOP-92 NSCLC
HS 578T breast = test system: HS 578T breast
EKVX NSCLC = test system: EKVX NSCLC
TK-10 renal = test system: TK-10 renal

SMILES: COC(=O)[C@]1(C)CC[C@]2(C)CC[C@]3(C)C(=CC(=O)[C@@H]4[C@@]5(C)CCC(=O)NC(C)(C)[C@@H]5CC[C@]43C)[C@@H]2C1
- GI50 (RXF 393 renal): 13.5 µM
- TGI (RXF 393 renal): 27.5 µM
- GI50 (786-0 renal): 18.3 µM
- TGI (786-0 renal): 35 µM
- GI50 (MOLT-4 leukemia): 10.5 µM
- TGI (MOLT-4 leukemia): 31.6 µM
- GI50 (M14 melanoma): 19.3 µM
- TGI (M14 melanoma): 44.4 µM
- GI50 (OVCAR-3 ovarian): 15.3 µM
- TGI (OVCAR-3 ovarian): 32.7 µM
- GI50 (BT-549 breast): 12.8 µM
- TGI (BT-549 breast): 28 µM
- GI50 (HOP-92 NSCLC): 10.7 µM
- TGI (HOP-92 NSCLC): 24.2 µM
- GI50 (HS 578T breast): 32.7 µM
- TGI (HS 578T breast): > 100 µM
- GI50 (EKVX NSCLC): 25.5 µM
- TGI (EKVX NSCLC): > 100 µM
- GI50 (TK-10 renal): 40.2 µM
- TGI (TK-10 renal): > 100 µM

SMILES: NC(N)=N/N=C/c1ccc(Br)cc1
- GI50 (RXF 393 renal): 3.68 µM
- TGI (RXF 393 renal): 12.3 µM
- GI50 (786-0 renal): 5.11 µM
- TGI (786-0 renal): 17.7 µM
- GI50 (MOLT-4 leukemia): 3.98 µM
- TGI (MOLT-4 leukemia): > 100 µM
- GI50 (M14 melanoma): 2.21 µM
- TGI (M14 melanoma): 5.67 µM
- GI50 (OVCAR-3 ovarian): 3.41 µM
- TGI (OVCAR-3 ovarian): 9.23 µM
- GI50 (BT-549 breast): 5.64 µM
- TGI (BT-549 breast): 16.7 µM
- GI50 (HOP-92 NSCLC): 5.78 µM
- TGI (HOP-92 NSCLC): 24 µM
- GI50 (HS 578T breast): 3.33 µM
- TGI (HS 578T breast): 10.2 µM
- GI50 (TK-10 renal): 7.44 µM
- TGI (TK-10 renal): 21.3 µM

SMILES: COc1ccc(-c2cc3c(N)ncnc3o2)cc1
- GI50 (RXF 393 renal): > 25 µM
- TGI (RXF 393 renal): > 25 µM
- GI50 (786-0 renal): > 25 µM
- TGI (786-0 renal): > 25 µM
- GI50 (MOLT-4 leukemia): > 25 µM
- TGI (MOLT-4 leukemia): > 25 µM
- GI50 (M14 melanoma): > 19.1 µM
- TGI (M14 melanoma): > 25 µM
- GI50 (OVCAR-3 ovarian): > 25 µM
- TGI (OVCAR-3 ovarian): > 25 µM
- GI50 (BT-549 breast): > 25 µM
- TGI (BT-549 breast): > 25 µM
- GI50 (HOP-92 NSCLC): 17.1 µM
- TGI (HOP-92 NSCLC): > 25 µM
- GI50 (HS 578T breast): 5.85 µM
- TGI (HS 578T breast): > 25 µM
- GI50 (EKVX NSCLC): 3.59 µM
- TGI (EKVX NSCLC): > 25 µM
- GI50 (TK-10 renal): 9.44 µM
- TGI (TK-10 renal): > 25 µM

SMILES: NC(=S)N=Nc1c(O)[nH]c2ccccc12
- GI50 (RXF 393 renal): 134 µM
- TGI (RXF 393 renal): 262 µM
- GI50 (786-0 renal): 142 µM
- TGI (786-0 renal): 296 µM
- GI50 (MOLT-4 leukemia): 243 µM
- TGI (MOLT-4 leukemia): > 1000 µM
- GI50 (OVCAR-3 ovarian): 139 µM
- TGI (OVCAR-3 ovarian): 322 µM
- GI50 (BT-549 breast): 131 µM
- TGI (BT-549 breast): 258 µM
- GI50 (HOP-92 NSCLC): 64.8 µM and 106 µM
- TGI (HOP-92 NSCLC): 224 µM
- GI50 (HS 578T breast): 195 µM
- TGI (HS 578T breast): 691 µM
- GI50 (EKVX NSCLC): 19.2 µM and 123 µM
- TGI (EKVX NSCLC): 318 µM
- GI50 (TK-10 renal): 165 µM
- TGI (TK-10 renal): 326 µM

SMILES: CSc1nc(-c2cccc(NC(=O)CCl)c2)c(C#N)c(=O)n1C
- GI50 (RXF 393 renal): 1.54 µM
- TGI (RXF 393 renal): 3.03 µM
- GI50 (786-0 renal): 1.75 µM
- TGI (786-0 renal): 3.45 µM
- GI50 (M14 melanoma): 1.78 µM
- TGI (M14 melanoma): 5.61 µM
- GI50 (OVCAR-3 ovarian): 1.7 µM
- TGI (OVCAR-3 ovarian): 3.2 µM
- GI50 (BT-549 breast): 1.51 µM
- TGI (BT-549 breast): 3.02 µM
- GI50 (HOP-92 NSCLC): 1.75 µM
- TGI (HOP-92 NSCLC): 3.38 µM
- GI50 (HS 578T breast): 2.33 µM
- TGI (HS 578T breast): 7.45 µM
- GI50 (EKVX NSCLC): 1.88 µM
- TGI (EKVX NSCLC): 3.65 µM
- GI50 (TK-10 renal): 2.38 µM
- TGI (TK-10 renal): 5.53 µM

SMILES: O=C1CC2OCC=C3CN4CCC56c7ccccc7N1C5C2C3CC46 (centres undefined) (tested in a mixture with another compound)
- GI50 (RXF 393 renal): > 50 µg/mL
- TGI (RXF 393 renal): > 50 µg/mL
- GI50 (786-0 renal): > 50 µg/mL
- TGI (786-0 renal): > 50 µg/mL
- GI50 (MOLT-4 leukemia): 11.5 µg/mL
- TGI (MOLT-4 leukemia): 24.9 µg/mL
- GI50 (M14 melanoma): > 50 µg/mL
- TGI (M14 melanoma): > 50 µg/mL
- GI50 (OVCAR-3 ovarian): > 50 µg/mL
- TGI (OVCAR-3 ovarian): > 50 µg/mL
- GI50 (BT-549 breast): > 50 µg/mL
- TGI (BT-549 breast): > 50 µg/mL
- GI50 (HOP-92 NSCLC): > 50 µg/mL
- TGI (HOP-92 NSCLC): > 50 µg/mL
- GI50 (HS 578T breast): > 50 µg/mL
- TGI (HS 578T breast): > 50 µg/mL
- GI50 (EKVX NSCLC): > 50 µg/mL
- TGI (EKVX NSCLC): > 50 µg/mL
- GI50 (TK-10 renal): > 50 µg/mL
- TGI (TK-10 renal): > 50 µg/mL
